The results in this text go back to PubChem BioAssay AID258 (DTP/NCI, 2004).

Toxic doses and inconclusive results are not listed.

The subject of the assay is CD2F1 mice, L1210 leukemia sc, survival T/C. Nature of the assay: NCI In Vivo Anticancer Drug Screen. Data for tumor model L1210 Leukemia (subcutaneous) in CD2F1 (CDF1) mice. The following applies: endpoint: median survival time, higher = longer survival. The essentials:
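Mice with transplanted tumor dosed; survival/tumor size read; T/C vs vehicle controls.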

[1] abbreviates: dose: 8.4 mg/kg/injection, schedule: Q01DX Z (sc), vehicle: water.
Where [2] appears, read: dose: 14.0 mg/kg/injection, schedule: Q01DX Z (sc), vehicle: water.
The mark [3] stands for this setting: dose: 100.0 mg/kg/injection, schedule: Q01DX009 (ip), vehicle: saline with Tween-80.
The mark [4] stands for this setting: dose: 200.0 mg/kg/injection, schedule: Q01DX009 (ip), vehicle: saline with Tween-80.
[5] abbreviates: dose: 800.0 mg/kg/injection, schedule: Q01DX009 (ip), vehicle: saline with Tween-80.

As for `O=C(O)c1[nH]c(=O)[nH]c(=O)c1F`, the T/C runs as follows: (dose: 3.0 mg/kg/injection, schedule: Q01DX Z (sc), vehicle: saline) 111 % of control; (dose: 8.4 mg/kg/injection, schedule: Q01DX Z (sc), vehicle: saline) 177 % of control; (dose: 14.0 mg/kg/injection, schedule: Q01DX Z (sc), vehicle: saline) 155 % of control; (dose: 23.0 mg/kg/injection, schedule: Q01DX Z (sc), vehicle: saline) 166 % of control; (dose: 39.0 mg/kg/injection, schedule: Q01DX Z (sc), vehicle: saline) 155 % of control.
With `CC1CN=C(c2ccc(NC(=O)c3ccc(C(=O)Nc4ccc(C5=NCC(C)N5)cc4)cc3)cc2)N1` (centres undefined), the T/C is 115 % of control (dose: 1.8 mg/kg/injection, schedule: Q01DX Z (sc), vehicle: water); 155 % of control (dose: 3.0 mg/kg/injection, schedule: Q01DX Z (sc), vehicle: water); 240 % of control (dose: 5.0 mg/kg/injection, schedule: Q01DX Z (sc), vehicle: water); 255 % of control under setting [1]; 230 % of control under setting [2].
As to `CC(=O)Oc1ccc[nH]c1=O`, the T/C runs as follows: (dose: 16.7 mg/kg/injection, schedule: Q03HX027 (ip), vehicle: saline with Tween-80) 107 % of control; (dose: 33.0 mg/kg/injection, schedule: Q03HX027 (ip), vehicle: saline with Tween-80) 104 % of control; (dose: 50.0 mg/kg/injection, schedule: Q01DX009 (ip), vehicle: saline with Tween-80) 98 % of control; (dose: 66.7 mg/kg/injection, schedule: Q03HX027 (ip), vehicle: saline with Tween-80) 96 % of control; under setting [3], 98 % of control; (dose: 133.0 mg/kg/injection, schedule: Q03HX027 (ip), vehicle: saline with Tween-80) 105 % of control. Also, the T/C under setting [4] was 98 % of control; the T/C (dose: 266.0 mg/kg/injection, schedule: Q03HX027 (ip), vehicle: saline with Tween-80) was 108 % of control; the T/C under setting [5] was 117 % of control.
As for `OC(CBr)C(O)C(O)C(O)CBr` (centres undefined), the T/C is, setting by setting: (dose: 40.0 mg/kg/injection, schedule: Q01DX009 (ip), vehicle: saline) 103 % of control; (dose: 40.0 mg/kg/injection, schedule: Q01DX009 (sc), vehicle: saline + alcohol) 105 % of control; (dose: 40.0 mg/kg/injection, schedule: Q01DX009 (sc), vehicle: saline with Tween-80) 103 % of control; (dose: 80.0 mg/kg/injection, schedule: Q01DX009 (ip), vehicle: saline) 113 % of control; (dose: 80.0 mg/kg/injection, schedule: Q01DX009 (sc), vehicle: saline + alcohol) 116 % of control; under setting [3], 100 % of control. In addition, the T/C reads like this: (dose: 100.0 mg/kg/injection, schedule: Q01DX009 (sc), vehicle: saline with Tween-80) 103 % of control; (dose: 108.0 mg/kg/injection, schedule: Q01DX Z (sc), vehicle: carboxymethylcellulose (CMC)) 100 % of control; (dose: 160.0 mg/kg/injection, schedule: Q01DX009 (sc), vehicle: saline + alcohol) 121 % of control; (dose: 160.0 mg/kg/injection, schedule: Q01DX009 (sc), vehicle: saline with Tween-80) 103 % of control; under setting [4], 103 % of control; (dose: 200.0 mg/kg/injection, schedule: Q01DX009 (sc), vehicle: saline with Tween-80) 102 % of control. Besides, the T/C is, setting by setting: (dose: 240.0 mg/kg/injection, schedule: Q01DX009 (ip), vehicle: saline with Tween-80) 124 % of control; (dose: 300.0 mg/kg/injection, schedule: Q01DX Z (sc), vehicle: carboxymethylcellulose (CMC)) 100 % of control; (dose: 320.0 mg/kg/injection, schedule: Q01DX009 (sc), vehicle: saline with Tween-80) 109 % of control; (dose: 400.0 mg/kg/injection, schedule: Q01DX009 (ip), vehicle: saline with Tween-80) 103 % of control; (dose: 400.0 mg/kg/injection, schedule: Q01DX009 (sc), vehicle: saline with Tween-80) 110 % of control; (dose: 480.0 mg/kg/injection, schedule: Q01DX009 (ip), vehicle: saline with Tween-80) 88 % of control. Moreover, the T/C is 100 % of control (dose: 500.0 mg/kg/injection, schedule: Q01DX Z (sc), vehicle: carboxymethylcellulose (CMC)); 93 % of control (dose: 640.0 mg/kg/injection, schedule: Q01DX009 (ip), vehicle: saline with Tween-80); 104 % of control (dose: 640.0 mg/kg/injection, schedule: Q01DX009 (sc), vehicle: saline with Tween-80); 98 % of control under setting [5]; 111 % of control (dose: 800.0 mg/kg/injection, schedule: Q01DX009 (sc), vehicle: saline with Tween-80); 96 % of control (dose: 960.0 mg/kg/injection, schedule: Q01DX009 (ip), vehicle: saline with Tween-80).
Regarding `NS(=O)(=O)OCCCCCCCOS(N)(=O)=O`, the T/C (dose: 30.0 mg/kg/injection, schedule: Q01DX009 (ip), vehicle: saline with Tween-80) is 124 % of control; the T/C (dose: 83.3 mg/kg/injection, schedule: Q01DX009 (ip), vehicle: saline with Tween-80) is 179 % of control; the T/C (dose: 138.8 mg/kg/injection, schedule: Q01DX009 (ip), vehicle: saline with Tween-80) was 118 % of control.
Consider `C[C@@](O)(/C=C/[C@H]1CC=CC(=O)O1)[C@@H](C[C@@H](O)\C=C/C=C\C=C\CO)OP(=O)(O)O`, for which the T/C was 104 % of control (dose: 0.78 mg/kg/injection, schedule: Q01DX009 (ip), vehicle: other); 116 % of control (dose: 1.56 mg/kg/injection, schedule: Q01DX009 (ip), vehicle: other); 157 % of control (dose: 3.13 mg/kg/injection, schedule: Q01DX009 (ip), vehicle: other); 197 % of control (dose: 6.25 mg/kg/injection, schedule: Q01DX009 (ip), vehicle: other).
Take `O=C(Nc1ccc(NC2=NCCN2)cc1)c1cccc(C(=O)Nc2ccc(NC3=NCCN3)cc2)c1`: the T/C is 110 % of control under setting [1]; 100 % of control under setting [2]; 105 % of control (dose: 23.0 mg/kg/injection, schedule: Q01DX Z (sc), vehicle: water); 110 % of control (dose: 39.0 mg/kg/injection, schedule: Q01DX Z (sc), vehicle: water).
